This note sets out measurements from patent publication US9840495B2, “Oxindole derivatives carrying a piperidyl-substituted azetidinyl substituent and use thereof for treating vasopressine-related diseases” (AbbVie Deutschland GmbH & Co. KG, priority 2013, dated 2017).

The target in assay [1] is human vasopressin V1a receptor (Homo sapiens, UniProt P37288). The experiment in a line: Vasopressin V1a receptor binding assay (125I-AVP displacement, CHO-K1 membranes). As to conditions: selectivity quotient, human V1a vs human V1b receptor binding.
Sequence of human vasopressin V1a receptor (P37288 whole entry): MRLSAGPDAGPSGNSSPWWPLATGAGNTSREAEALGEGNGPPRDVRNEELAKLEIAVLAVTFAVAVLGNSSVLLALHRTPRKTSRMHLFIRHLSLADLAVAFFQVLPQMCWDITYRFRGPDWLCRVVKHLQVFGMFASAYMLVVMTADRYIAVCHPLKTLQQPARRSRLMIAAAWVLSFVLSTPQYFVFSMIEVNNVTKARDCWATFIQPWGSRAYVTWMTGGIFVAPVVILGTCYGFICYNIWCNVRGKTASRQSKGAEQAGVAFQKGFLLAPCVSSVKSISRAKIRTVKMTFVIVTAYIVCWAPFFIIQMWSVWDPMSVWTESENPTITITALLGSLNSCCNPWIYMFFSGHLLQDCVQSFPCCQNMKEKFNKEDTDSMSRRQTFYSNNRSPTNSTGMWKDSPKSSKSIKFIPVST
The target in assay [2] is T1, human vasopressin V1b receptor (Homo sapiens, UniProt P47901).
T1 sequence (P47901 1-424): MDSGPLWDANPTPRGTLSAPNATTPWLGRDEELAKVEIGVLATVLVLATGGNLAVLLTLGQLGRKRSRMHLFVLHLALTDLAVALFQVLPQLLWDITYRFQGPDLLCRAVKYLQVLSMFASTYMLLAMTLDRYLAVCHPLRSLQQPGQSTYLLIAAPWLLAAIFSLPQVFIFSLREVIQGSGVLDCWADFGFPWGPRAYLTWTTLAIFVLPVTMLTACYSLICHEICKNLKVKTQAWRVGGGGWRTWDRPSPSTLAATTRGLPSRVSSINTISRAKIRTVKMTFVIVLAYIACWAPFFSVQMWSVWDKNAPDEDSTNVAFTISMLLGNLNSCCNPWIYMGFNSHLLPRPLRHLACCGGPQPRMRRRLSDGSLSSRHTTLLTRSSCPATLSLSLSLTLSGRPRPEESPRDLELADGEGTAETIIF
The experiment in a line: biochemical.

Each structure is given as a SMILES string.

What is called Ki is a measure of affinity in units of concentration, obtained from inhibition or displacement.

Take `CCOc1ncccc1[C@]1(NC(=O)N2CC(N3CCC(N4CC(C5COC5)C4)CC3)C2)C(=O)N(S(=O)(=O)c2ccc(OC)cc2OC)c2ccc(C#N)cc21` [Example 18, (S)—N-(5-Cyano-1-((2,4-dimethoxyphenyl)sulfonyl)-3-(2-ethoxypyridin-3-yl)-2-oxoindolin-3-yl)-3-(4-(3-(oxetan-3-yl)azetidin-1-yl)piperidin-1-yl)azetidine-1-carboxamide]: in assay [1], the “Ki(h-V1a)/Ki(h-V1b)” value is given as “+++ (>75)”. Further, the Ki in assay [2] was under 1 nM.

For the compound `CCOc1ncccc1[C@]1(NC(=O)N2CC(N3CCC(N4CC5(COC5)C4)CC3)C2)C(=O)N(S(=O)(=O)c2ccc(OC)cc2OC)c2ccc(C#N)cc21` [Example 19, (S)-3-(4-(2-Oxa-6-azaspiro[3.3]heptan-6-yl)piperidin-1-yl)-N-(5-cyano-1-((2,4-dimethoxyphenyl)sulfonyl)-3-(2-ethoxypyridin-3-yl)-2-oxoindolin-3-yl)azetidine-1-carboxamide], in assay [1], the “Ki(h-V1a)/Ki(h-V1b)” value is “+++ (>75)”. Besides, the Ki in assay [2] was under 1 nM.

`COc1ccc(S(=O)(=O)N2C(=O)[C@@](NC(=O)N3CC(N4CCC(NC5COC5)CC4)C3)(c3cccnc3OC)c3cc(C#N)ccc32)c(OC)c1` [Example 20, (S)—N-(5-Cyano-1-((2,4-dimethoxyphenyl)sulfonyl)-3-(2-methoxypyridin-3-yl)-2-oxoindolin-3-yl)-3-(4-(oxetan-3-ylamino)piperidin-1-yl)azetidine-1-carboxamide]: the “Ki(h-V1a)/Ki(h-V1b)” value in assay [1] is given as “+ (10-<25)”. The compound also gave a Ki in assay [2] of 1 to 10 nM.

As to `COc1ccc(S(=O)(=O)N2C(=O)[C@@](NC(=O)N3CC(N4CCC(N(C)C5CCOCC5)CC4)C3)(c3cccnc3OC)c3cc(C#N)ccc32)c(OC)c1` [Example 21, (S)—N-(5-Cyano-1-((2,4-dimethoxyphenyl)sulfonyl)-3-(2-methoxypyridin-3-yl)-2-oxoindolin-3-yl)-3-(4-(methyl(tetrahydro-2H-pyran-4-yl)amino)piperidin-1-yl)azetidine-1-carboxamide], in assay [1], the “Ki(h-V1a)/Ki(h-V1b)” value is “+ (10-<25)”. Further, in assay [2], the Ki is under 1 nM.

For the compound `CCN(C1CCN(C2CN(C(=O)N[C@@]3(c4cccnc4OC)C(=O)N(S(=O)(=O)c4ccc(OC)cc4OC)c4ccc(C#N)cc43)C2)CC1)C1COC1` [Example 23, (S)—N-(5-Cyano-1-((2,4-dimethoxyphenyl)sulfonyl)-3-(2-methoxypyridin-3-yl)-2-oxoindolin-3-yl)-3-(4-(ethyl(oxetan-3-yl)amino)piperidin-1-yl)azetidine-1-carboxamide], the “Ki(h-V1a)/Ki(h-V1b)” value in assay [1] is on record as “++ (25-75)”. This compound also had a Ki in assay [2] of 1 to 10 nM.

Take `CCOc1ncccc1[C@]1(NC(=O)N2CC(N3CCC(N4CCOCC4)CC3)C2)C(=O)N(S(=O)(=O)c2cc(F)c(OC)cc2OC)c2ccc(C#N)cc21` [Example 24, (S)—N-(5-Cyano-3-(2-ethoxypyridin-3-yl)-1-((5-fluoro-2,4-dimethoxyphenyl)sulfonyl)-2-oxoindolin-3-yl)-3-(4-morpholinopiperidin-1-yl)azetidine-1-carboxamide]: in assay [1], the “Ki(h-V1a)/Ki(h-V1b)” value is “+++ (>75)”. The Ki in assay [2] was in the range of 1 to 10 nM.

Regarding `CCOc1ncccc1[C@]1(NC(=O)N2CC(N3CCC(N4CCOCC4)CC3)C2)C(=O)N(S(=O)(=O)c2ccc(OC)cc2)c2ccc(C#N)cc21` [Example 25, (S)—N-(5-Cyano-3-(2-ethoxypyridin-3-yl)-1-((4-methoxyphenyl)sulfonyl)-2-oxoindolin-3-yl)-3-(4-morpholinopiperidin-1-yl)azetidine-1-carboxamide], the “Ki(h-V1a)/Ki(h-V1b)” value in assay [1] is “++ (25-75)”. In addition, the Ki in assay [2] is under 1 nM.

As for `CCOc1ncccc1[C@]1(NC(=O)N2CC(N3CCC(N4CCOCC4)CC3)C2)C(=O)N(S(=O)(=O)c2ccc(OC)cc2F)c2ccc(C#N)cc21` [Example 27, (S)—N-(5-cyano-3-(2-ethoxypyridin-3-yl)-1-((2-fluoro-4-methoxyphenyl)sulfonyl)-2-oxoindolin-3-yl)-3-(4-morpholinopiperidin-1-yl)azetidine-1-carboxamide], the “Ki(h-V1a)/Ki(h-V1b)” value in assay [1] is “+++ (>75)”. Further, in assay [2], the inhibitory constant (Ki) was under 1 nM.

Take `CCOc1ncccc1[C@]1(NC(=O)N2CC(N3CCC(N4CCOCC4)CC3)C2)C(=O)N(S(=O)(=O)c2ccc(F)cc2OC)c2ccc(C#N)cc21` [Example 28, (S)—N-(5-cyano-3-(2-ethoxypyridin-3-yl)-1-((4-fluoro-2-methoxyphenyl)sulfonyl)-2-oxoindolin-3-yl)-3-(4-morpholinopiperidin-1-yl)azetidine-1-carboxamide]: in assay [1], the “Ki(h-V1a)/Ki(h-V1b)” value is recorded as “+++ (>75)”. Besides, in assay [2], the Ki lay within 1 to 10 nM.

Regarding `COc1ccccc1S(=O)(=O)N1C(=O)[C@@](NC(=O)N2CC(N3CCC(N(C)C4COC4)CC3)C2)(c2cccnc2OC)c2cc(C#N)ccc21` [Example 29, (S)—N-(5-Cyano-1-((2-methoxyphenyl)sulfonyl)-3-(2-methoxypyridin-3-yl)-2-oxoindolin-3-yl)-3-(4-(methyl(oxetan-3-yl)amino)piperidin-1-yl)azetidine-1-carboxamide], in assay [1], the “Ki(h-V1a)/Ki(h-V1b)” value is reported as “+ (10-<25)”. The Ki in assay [2] lay in the range of 1 to 10 nM.

Turning to `COc1cc(F)ccc1S(=O)(=O)N1C(=O)[C@@](NC(=O)N2CC(N3CCC(N(C)C4COC4)CC3)C2)(c2cccnc2OC)c2cc(C#N)ccc21` [Example 30, (S)—N-(5-Cyano-1-((4-fluoro-2-methoxyphenyl)sulfonyl)-3-(2-methoxypyridin-3-yl)-2-oxoindolin-3-yl)-3-(4-(methyl(oxetan-3-yl)amino)piperidin-1-yl)azetidine-1-carboxamide], the “Ki(h-V1a)/Ki(h-V1b)” value in assay [1] was “+ (10-<25)”. For the same compound, in assay [2], the Ki lay within 1 to 10 nM.

For the compound `COc1ncccc1[C@]1(NC(=O)N2CC(N3CCC(N(C)C4COC4)CC3)C2)C(=O)N(S(=O)(=O)c2ccc(F)cc2)c2ccc(C#N)cc21` [Example 31, (S)—N-(5-Cyano-1-((4-fluorophenyl)sulfonyl)-3-(2-methoxypyridin-3-yl)-2-oxoindolin-3-yl)-3-(4-(methyl(oxetan-3-yl)amino)piperidin-1-yl)azetidine-1-carboxamide], the “Ki(h-V1a)/Ki(h-V1b)” value in assay [1] is “+ (10-<25)”. This compound also had a Ki in assay [2] of 1 to 10 nM.

In the case of `COc1ccc(S(=O)(=O)N2C(=O)[C@@](NC(=O)N3CC(N4CCC(N(C)C5COC5)CC4)C3)(c3cccnc3OC)c3cc(C#N)ccc32)c(F)c1` [Example 32, (S)—N-(5-Cyano-1-((2-fluoro-4-methoxyphenyl)sulfonyl)-3-(2-methoxypyridin-3-yl)-2-oxoindolin-3-yl)-3-(4-(methyl(oxetan-3-yl)amino)piperidin-1-yl)azetidine-1-carboxamide], the “Ki(h-V1a)/Ki(h-V1b)” value in assay [1] was “+ (10-<25)”. In assay [2], this compound returned a Ki of 1 to 10 nM.

In the case of `COc1ncccc1[C@]1(NC(=O)N2CC(N3CCC(N(C)C4COC4)CC3)C2)C(=O)N(S(=O)(=O)c2ccc(F)cc2F)c2ccc(C#N)cc21` [Example 33, (S)—N-(5-Cyano-1-((2,4-difluorophenyl)sulfonyl)-3-(2-methoxypyridin-3-yl)-2-oxoindolin-3-yl)-3-(4-(methyl(oxetan-3-yl)amino)piperidin-1-yl)azetidine-1-carboxamide], the “Ki(h-V1a)/Ki(h-V1b)” value in assay [1] is “+ (10-<25)”. In addition, in assay [2], the inhibition constant (Ki) lay within 10 to 100 nM.
